In experiment [1] the test system is termite workers and soldiers. Description: Non-choice tests of antibiotics and a fungus inhibitor in bait matrix. It counts as in vivo. The following applies: 100 ppm in bait matrix; after three weeks of exposure. How it is done:
Non-choice tests using five different antibiotics (streptomycin sulfate, rifampicin, albendazole, neomycin sulfate, and antimycotic) and a fungus inhibitor (sorbic acid) were conducted at four different concentrations (100, 250, 500, and 1000 ppm). Individual chemicals were mixed with the bait matrix of Example 3 at each concentration and 10 g samples of each were transferred to sterile plastic Petri dishes and exposed to groups of 20 termite workers and two soldiers. Five repetitions per treatment were done. The dishes were kept in a Percival incubator under dark conditions at 27±1° C. and 80% relative humidity. A control containing no antibiotic or fungus inhibitor was prepared and kept under the same conditions as the treatments. Time required to reach 100% mortality was recorded.

In experiment [2] the test system is Formosan subterranean termite colony. The experiment in a line: Pair choice test, yellow pine versus bait matrix mixed with hexaflumuron. It counts as in vivo, Coptotermes formosanus. The following applies: 50 ppm hexaflumuron in bait matrix; period of 10 weeks; colony of 1500. How it is done: To determine the acceptance by the Formosan subterranean termite of the bait matrix of Example 3 with toxic chemicals added, a pair choice test between a 25 g piece of yellow pine and an equivalent amount of bait matrix mixed with 50-ppm hexaflumuron was performed. Both pine and bait matrix were exposed to a Formosan termite colony composed of 1500 soldiers, workers, and nymphs, housed in a plastic Sterilite container containing 2L topsoil:sand (1:1) at 40% relative humidity. The treatment box was maintained under dark conditions at 26±3° C. A control, 12″ yellow pine wood stakes without hexaflumuron, was prepared and kept at the same conditions as the treatment.

A further experiment concerns termite. As to conditions: 125 ppm hexaflumuron in a matrix composed of spruce sawdust; cited from earlier work.

For `C/C=C/C=C/C(=O)O` [sorbic acid], in experiment [1], the Mortality came out at 33%.

The molecule neomycin sulfate displayed a Mortality in experiment [1] of 40%.

As for `CCCSc1ccc2nc(NC(=O)OC)[nH]c2c1` [albendazole], the Mortality in experiment [1] was 40%.

With `O=C(NC(=O)c1c(F)cccc1F)Nc1cc(Cl)c(OC(F)(F)C(F)F)c(Cl)c1` [hexaflumuron], the Mortality in experiment [2] amounted to 100%. Also, the “Mortality compared with 50 ppm in bait matrix (100% in 10 weeks)” value in the experiment with termite was “equivalent”.

The values are drawn from US6585991B1, “Termite bait matrix” (The United States of America as represented by the …, priority 1999, dated 2003).
